Results: patent US20150202219A1, “NEUROPROTECTION FROM BRAIN ANOXIA AND REPERFUSION INJURY DURING STROKE AND COMPOSITIONS OF PKG PATHWAY ACTIVATORS AND METHOD OF USE THEREOF” (Florida Atlantic University, priority 2010, published 2015)

What was measured:
[1] = test system: adult Drosophila melanogaster; experiment: Time to anoxic coma onset (locomotion failure) during acute hypoxia after volatilized drug treatment; assay type: in vivo; conditions: adult sitter flies; single agent volatilized from 10 uL DMSO for 1 hr; 1 mM KT5823, 1 mM Cantharidin, 200 mM DCA, 10 mM 8-Bromo cGMP, 10 mM T-0156; argon displacement; Dunn's p<0.05
Experimental: Using both genetics and pharmacology, the roles and order of function of additional cGMP-dependent signaling molecules in modulating acute low-oxygen sensitivity of locomotory failure were examined. To do this, we imposed acute hypoxia (<0.2% O2 within 5 min) by displacing environmental oxygen with the inert gas argon and then measured time to failure of locomotion (anoxic coma), which can be observed in less than 2% atmospheric oxygen (Haddad, 2000). We also used a novel but reliable method of pharmacological volatilization as a means to manipulate, in vivo, the activity of target enzymes and molecules such as PKG. Flies were frozen immediately after each trial, and heads were dissected and examined for PKG activity, as an indicator for activity levels in the brain (Belay et al., 2007; Kaun et al., 2007b). Lastly, using adult flies we tested what has been previously shown in embryos and larva (Wingrove and O'Farrell, 1999), the effect of prolonged anoxia (6 hours) on animal survival, after a 24 hour recovery.
Ten flies (separated into males or females) from each of the three strains (rover [for^R], sitter [for^s] and for^s2) were selected and placed in three separate vials with food at least 24 hours before each experiment. At the time of the experiment, flies were emptied into 10 mL empty test vials covered with permeable sponge caps of equivalent thickness, allowing for consistent gas exchange. These test vials were then placed into a 600 mL beaker which was covered with parafilm, creating a closed chamber with an escape hole in the parafilm (1 cm diameter). The purpose of this hole is to allow the lighter normal air (compared to argon which is heavier) to escape from the top of the beaker. The parafilm top was punctured with a needle connected to a gas tank (by a plastic hose), through which the inert gas argon was expelled. Preliminary work was done with pure nitrogen, where no significant differences between the uses of the two gases were observed (data not shown).
The needle tip was fastened to the bottom of the beaker and inserted into a larger sponge of similar texture to the vial sponge caps to ensure that gas expelled from the needle was dispersed equally throughout the beaker. […]
The experiment required exposing the test vials with 10 flies in a vial within the container to pure argon gas expelled from the tank at a flow rate of 600 cc/min±5%. Time of behavioral failure was recorded by observing the fly undergo a seizure, which was quickly followed by an anoxic coma. […] The program recorded these times of failure for each individual fly within the vials and then computed an average failure time for each vial (each vial has 10 flies but gives an average value for N=1). […]

PKG = PKG enzyme activity assay on heads of treated flies; assay type: biochemical, Drosophila melanogaster; conditions: heads of animals from FIG. 4a experiments; N=6 for each treatment; SNK
Experimental: PKG enzyme activity assays were conducted according to the procedure outlined in Kaun et al. (2007)(Kaun et al., 2007b). Adult Drosophila were decapitated and the heads were homogenized in 25 mM 1-1 Tris (pH 7.4), 1 mM 1-1 EDTA, 2 mM 1-1 EGTA, 5 mM 1-1 β-mercaptoethanol, 0.05% Triton X-100 and protease inhibitor solution (Roche Diagnostics). Following microcentrifugation for 5 min, the supernatant was removed and those supernatants containing equal amounts of total protein were examined for PKG enzyme activity. The reaction mixture contained the following substances: 40 mM 1-1 Tris-HCl (pH 7.4), 20 mM 1-1 magnesium acetate, 0.2 mM 1-1 [γ^32P]ATP (500-1000 c.p.m. pmol-1), 113 mg ml-1 heptapeptide (RKRSRAE), 3 mM 1-1 cGMP and a highly specific inhibitor of cAMP-dependent protein kinase. The next step of the procedure involved incubating the reaction mixtures at a temperature of 30° C. for 10 min, followed by ending the reaction by spotting 70 μl of the reaction mixture onto Whatman P-81 filters. To remove any unreacted [γ^32P]ATP, these spots were then soaked with 75 mM 1-1 H3PO4 for 5 min and washed three times with 75 mM 1-1 H3PO4. Before quantifying enzyme activity, filters were rinsed with 100% ethanol and air dried. To calculate PKG enzyme activity, counts were taken in a Wallac 1409 Liquid Scintillation Counter using universal scintillation cocktail (ICN). PKG activity was presented in the figures as pmol of ^32P incorporated into the substrate min-1 mg-1 protein.

NT-3 = conditions: cited from earlier work
protein phosphatase = conditions: cited from earlier work
[2] = molecular target: T1, phosphodiesterase-5 (PDE-5) (Mus musculus, UniProt Q8CG03); conditions: mice; 1.4-mg/kg intraperitoneal injections daily for 8 days; cited from earlier work
T1 construct: Sildenafil (Viagra) was administered to mice, 1.4-mg/kg intraperitoneal injections daily for 8 days; host or cells: mice in vivo (brain neurons under hypoxia)

Row | SMILES | anoxic coma onset sensitivity (time to failure) vs sham control [1] | PKG enzyme activity levels in heads compared to sham control (PKG) | neurotrophin (NT-3) activity (NT-3) | nerve cell death (protein phosphatase) | neuron apoptosis during hypoxia [2]
1 | Nc1nc2c(nc(Br)n2[C@@H]2O[C@@H]3COP(=O)(O)O[C@H]3[C@H]2O)c(=O)[nH]1 [8-Bromo cGMP, 8-Bromo-cGMP] | significant sensitivity to anoxic coma | significant effects compared to that of the sham control |  |  | 
2 | C[C@@]12C(=O)OC(=O)[C@]1(C)[C@H]1CC[C@@H]2O1 [Cantharidin] | significant resilience to anoxic coma | no significant effects on PKG enzyme activity levels |  |  | 
3 | COC(=O)[C@@]1(OC)C[C@H]2O[C@]1(C)n1c3ccccc3c3c4c(c5c6ccccc6n2c5c31)C(=O)N(C)C4 [KT5823] | significant resilience to anoxic coma | significant effects compared to that of the sham control | potentiation of NT-3 |  | 
4 | C=C1[C@@H](O)[C@@H]2O[C@]3(CC[C@H](/C=C/[C@@H](C)[C@@H]4CC(C)=C[C@@]5(O[C@H](C[C@@](C)(O)C(=O)O)CC[C@H]5O)O4)O3)CC[C@H]2O[C@@H]1[C@@H](O)C[C@H](C)[C@H]1O[C@@]2(CCCCO2)CC[C@H]1C [Okadaic acid] |  |  |  | increase nerve cell death | 
5 | CCCc1nn(C)c2c(=O)[nH]c(-c3cc(S(=O)(=O)N4CCN(C)CC4)ccc3OCC)nc12 [Sildenafil, sildenafil] |  |  |  |  | reduces neuron apoptosis
6 | COC(=O)c1c(-c2cc(OC)c(OC)c(OC)c2)c2ccnc(OCc3ncccn3)c2c(=O)n1Cc1ccnc(C)c1 [T-0156] | significant sensitivity to anoxic coma | significant effects compared to that of the sham control |  |  | 
